Source: patent publication US10966955B2, “Ocular drug delivery system and uses thereof” (Chang Gung University, priority 2020, dated 2021)

Columns and labels:
[1] = In vitro drug release of the ocular drug delivery system in sPLA2 solution (HPLC); type: physicochemical
Protocol: A suitable amount of the ocular drug delivery system obtained in Example 1 was immersed in 1 mL of a sPLA2 solution (containing 0.1 mg/mL sPLA2), followed by incubation at 37° C. with reciprocal shaking (100 rpm) in a thermostatically controlled water bath for a designated time period ranging from 0 minutes to 168 hours. Sample solutions were taken at each time point of 0, 1, 2, 3, 4, 5, 12, 24, 48, 72, 96, 120, 144, and 168 hours. The sample solutions thus obtained were centrifuged at 1000 rpm for 3 minutes. The resultant supernatants were collected and then subjected to high performance liquid chromatography (HPLC) analysis using a L-2400 UV detector, a L-2130 pump (Hitachi, Tokyo, Japan), and a Mightysil RP-18 column (Kanto Chemical, Tokyo, Japan). The HPLC operating conditions applied were described as follows. The mobile phase was 90% water with 0.1% trifluroacetic acid and 10% acetonitrile, and the flow rate of the mobile phase was 1 mL/min. The injection volume was 10 μL. The elution peak was detected by measuring absorbance at 280 nm (for EGCG), 305 nm (for β-1,3 glucan), and 274 nm (for SB-431542), respectively. The amount of EGCG released from the sPLA2 hydrolysable liposomes was calculated with reference to a standard calibration curve of EGCG. Results from five independent measurements were averaged and further used to calculate the cumulative released amount of EGCG.

[2] = In vitro drug release of the ocular drug delivery system in hyaluronidase solution (HPLC); type: physicochemical; details: for release rate compared with the other drugs (in words): hyaluronidase solution, EGCG in sPLA2 solution
Protocol: A suitable amount of the ocular drug delivery system obtained in Example 1 was immersed in 1 mL of a sPLA2 solution (containing 0.1 mg/mL sPLA2), followed by incubation at 37° C. with reciprocal shaking (100 rpm) in a thermostatically controlled water bath for a designated time period ranging from 0 minutes to 168 hours. Sample solutions were taken at each time point of 0, 1, 2, 3, 4, 5, 12, 24, 48, 72, 96, 120, 144, and 168 hours.
The sample solutions thus obtained were centrifuged at 1000 rpm for 3 minutes. The resultant supernatants were collected and then subjected to high performance liquid chromatography (HPLC) analysis using a L-2400 UV detector, a L-2130 pump (Hitachi, Tokyo, Japan), and a Mightysil RP-18 column (Kanto Chemical, Tokyo, Japan).
The HPLC operating conditions applied were described as follows. The mobile phase was 90% water with 0.1% trifluroacetic acid and 10% acetonitrile, and the flow rate of the mobile phase was 1 mL/min. The injection volume was 10 μL. The elution peak was detected by measuring absorbance at 280 nm (for EGCG), 305 nm (for β-1,3 glucan), and 274 nm (for SB-431542), respectively.
The release profile of β-1,3-glucan from the first HA-SH nanoparticles and the release profile of SB-431542 from the second HA-SH nanoparticles were evaluated substantially according to the procedures as described above, except that the ocular drug delivery system was immersed in 1 mL of a hyaluronidase solution (containing 100 U/mL hyaluronidase).

[3] = system: SIRC cells; test: Cell migration assay of SIRC cells; type: cell-based, rabbit; details: cell-free gap about 180 μm, 18 hours
Protocol: (b) Rabbit corneal epithelial (SIRC) cells (BCRC NO: 60093) were obtained from the Bioresources Collection and Research Center (BCRC) of Food Industry Research and Development Institute (FIRDI) (Hsinchu, Taiwan). The SIRC cells were grown in a regular growth medium containing minimum essential medium (MEM) and 10% fetal bovine serum (FBS), and were cultivated in a humidified atmosphere (5% CO2, 37° C.).
A cell culture insert was placed into each well of a 12-well culture plate. The SIRC cells were seeded into the culture tanks on both sides of the culture insert at a cell number of 1×10^4 cells and then incubated overnight to allow cell attachment. Thereafter, the culture insert was removed to create a cell-free gap with a width of about 180 μm, and then the liquid in each well was removed. Each well was washed three times with phosphate-buffered saline (PBS), followed by addition of 200 μL of Eagle's minimum essential medium (MEM). […]
At 0 and 18 hours after incubation, the cell migration profile of the SIRC cells in each group was photographed using an inverted phase contrast microscope (Nikon, Melville, N.Y., USA), and the width of the cell-free gap was measured by ImageJ software. The cell migration rate (%) was calculated using the following Equation (I): Cell migration rate (%)=[A−B)/A]×100 (I) […]

release of EGCG (in words) ([1]; within 8 hours following initiation of the release test, sPLA2 solution) | cumulative release rate of EGCG from the sPLA2 hydrolysable liposomes ([1]; within 20 hours, 0.1 mg/mL sPLA2 solution, 37° C.) [%] | cumulative release rate of SB-431542 from the second HA-SH nanoparticles ([2]; at the 160th hour after initiation of the release test, 100 U/mL hyaluronidase solution, 37° C.) [%] | cumulative release rate of β-1,3 glucan from the first HA-SH nanoparticles ([2]; within 70 hours after initiation of the release test, 100 U/mL hyaluronidase solution, 37° C.) [%] | Compound | release rate compared with the other drugs (in words) [2] | Cell migration rate (%) [3] [%]
released in a large amount | 90 | – | – | O=C(O[C@@H]1Cc2c(O)cc(O)cc2O[C@@H]1c1cc(O)c(O)c(O)c1)c1cc(O)c(O)c(O)c1 [EGCG, epigallocatechin gallate] | – | –
– | – | 80 | – | NC(=O)c1ccc(-c2nc(-c3ccc4c(c3)OCO4)c(-c3ccccn3)[nH]2)cc1 [SB-431542] | slower than those of EGCG and β-1,3 glucan | –
– | – | – | 90 | β-1,3-glucan [β-1,3 glucan] | slower than that of EGCG | 73
